Here are results for 21 compounds from patent US20080004302A1, “Novel Compounds” (ASTRAZENECA AB, priority 2006, published 2008).

Each structure is given as a SMILES string. Some results are limits rather than exact numbers.

The subject of experiment [1] is Erk phosphorylation. As to the kind of experiment: Growth factor (bFGF) stimulated Erk phosphorylation in NIH 3T3 cells. As to conditions: Mus musculus, NIH3T3, NIH 3T3 cells, 3 ng/ml bFGF; upper bound of bin.
Experiment [2] deals with FGFR1 kinase (Homo sapiens, UniProt P11362). As to the kind of experiment: Kinase assay (using Caliper technology). The class given is biochemical. As to conditions: FGFR1 kinase, Caliper; upper bound of bin; read-out: IC50. Here is the method:
To determine inhibition of FGFR activity, kinase assays were conducted using Caliper technology.
Kinase activity assays were performed in Greiner 384-well low volume plates, with a total reaction volume of 12ul per well. […] The substrate for each assay was a custom peptide with fluorescent tag (13 amino acids in length) the sequence of which was specific for FGFR1 kinase.
Compounds were serially diluted in 5% (v/v) DMSO, before being added to assay plates.
Assay plates were incubated at room temperature for 1.5 h, before the reaction was stopped with the addition of buffer [comprising: 100 mM HEPES—pH7.5, 0.033% Brij-35, 0.22% Caliper Coating Reagent #3, 88mM EDTA, 5% DMSO]. Stopped assay plates were then read using the Caliper LabChip® LC3000 (which uses microfludics to measure a shift in mobility between fluorescent labelled peptide and the FGFR1 kinase—phosphorylated form of this peptide).

The target of experiment [3] is T1, human IGF1R (Homo sapiens, UniProt P08069).
T1 construct: expressed in transfected cells; host or cells: R+ cells (R- mouse fibroblasts transfected with human IGF1R)
T1 sequence (P08069 31-1367): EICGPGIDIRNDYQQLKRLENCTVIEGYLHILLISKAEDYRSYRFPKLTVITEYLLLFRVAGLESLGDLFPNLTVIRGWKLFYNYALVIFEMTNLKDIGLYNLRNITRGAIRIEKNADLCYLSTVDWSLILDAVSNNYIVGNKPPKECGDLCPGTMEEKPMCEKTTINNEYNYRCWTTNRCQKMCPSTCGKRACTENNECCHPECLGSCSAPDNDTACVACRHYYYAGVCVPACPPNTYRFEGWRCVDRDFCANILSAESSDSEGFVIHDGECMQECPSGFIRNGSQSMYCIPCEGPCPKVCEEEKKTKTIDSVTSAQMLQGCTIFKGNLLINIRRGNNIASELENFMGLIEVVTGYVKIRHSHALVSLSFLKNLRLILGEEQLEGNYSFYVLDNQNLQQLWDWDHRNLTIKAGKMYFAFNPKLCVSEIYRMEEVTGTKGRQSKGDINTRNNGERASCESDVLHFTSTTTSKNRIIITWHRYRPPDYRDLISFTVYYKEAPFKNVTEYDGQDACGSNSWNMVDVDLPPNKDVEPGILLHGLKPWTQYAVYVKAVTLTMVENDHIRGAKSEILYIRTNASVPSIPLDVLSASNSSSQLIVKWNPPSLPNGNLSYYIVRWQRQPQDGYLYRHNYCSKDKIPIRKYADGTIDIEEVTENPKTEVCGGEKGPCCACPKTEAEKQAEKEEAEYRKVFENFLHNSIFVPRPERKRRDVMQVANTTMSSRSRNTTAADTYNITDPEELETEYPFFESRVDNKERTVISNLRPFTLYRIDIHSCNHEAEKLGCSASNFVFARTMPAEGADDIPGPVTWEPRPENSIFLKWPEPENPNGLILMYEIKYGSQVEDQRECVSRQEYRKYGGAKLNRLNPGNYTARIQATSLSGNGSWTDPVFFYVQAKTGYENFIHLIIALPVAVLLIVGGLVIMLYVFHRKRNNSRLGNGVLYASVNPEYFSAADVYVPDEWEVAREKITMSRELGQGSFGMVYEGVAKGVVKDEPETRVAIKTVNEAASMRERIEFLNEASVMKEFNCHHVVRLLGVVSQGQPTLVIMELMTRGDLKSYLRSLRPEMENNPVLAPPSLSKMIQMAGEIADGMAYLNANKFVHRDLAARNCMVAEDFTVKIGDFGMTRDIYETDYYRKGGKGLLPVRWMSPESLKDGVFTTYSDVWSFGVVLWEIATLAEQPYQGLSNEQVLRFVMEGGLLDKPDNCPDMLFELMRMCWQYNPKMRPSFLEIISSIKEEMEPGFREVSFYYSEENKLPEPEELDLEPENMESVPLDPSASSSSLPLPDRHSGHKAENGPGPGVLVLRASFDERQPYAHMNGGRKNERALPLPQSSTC
In words: Inhibition of insulin-like growth factor-1 receptor phosphorylation in R+ cells. Type of experiment: cell-based. As to conditions: 30 nM IGF1, read-out: IGF cell class. As for the experimental part:
This immunofluorescence end point cell assay measures the ability of a test compound to reduce the measured levels of IGF1R phosphorylation after IGF1 stimulation in R^+ cells. […] were derived by transfection of R^− mouse fibroblast cells with human IGF1R.
(+5% CO2) incubator for 30 minutes.
Following the compound treatment, the R^+ cells were stimulated with a final concentration of 30 nM IGF1 (Gropep 1M001) for 20 minutes at 37° C. […] Plates were incubated for 1 hour at room temperature. […] Additionally, in-house antibodies raised against phospho […] were also used at a suitable titre determined for each batch.
The plates were incubated at room temperature for one hour. […] After addition of 100 μl/well PBS the plates were sealed with a black seal.
The Green Fluorescent phospho IGF1R -associated signal in each well was measured using an Acumen Explorer HTS Reader (TTP Labtech Ltd., Cambridge). […] The instrument is a laser-scanning fluorescence microplate cytometer, which samples the well at regular intervals and uses threshold algorithms to identify all fluorescent intensities above the solution background without the need to generate and analyse an image. These fluorescent objects can be quantified and provide a measure of the phospho IGF1R levels in cells. Fluorescence dose response data obtained with each compound was exported into a suitable software package (such as Origin) to perform curve fitting analysis. Phospho-IGF1R levels in response to compound treatment versus stimulated and unstimulated controls were expressed as an IC50 value.

Experiment [4] concerns the target T2, FGFR1 IIIc (Homo sapiens, UniProt P11362).
T2 construct: host or cells: Cos-1
As to the kind of experiment: Cell based inhibition of transiently expressed FGFR1 IIIc phosphorylation via use of ECHO technology (Cos-1 cells). As to conditions: Cos-1 cells, phospho-FGFR1, ECHO dosing; upper bound of bin; read-out: IC50. Here is the method: This assay is designed to detect inhibitors of transiently expressed FGFR1 phosphorylation by antibody staining of fixed cells detected using ArrayScan technology.
To undertake the assay, Cos-1 cells were harvested at 90-95% confluence for cell transfection. For each 96-well plate, 24μl Lipofectamine 2000 was added to 809 ul OptiMEM and incubated at room temperature for 5 minutes. […] Equal volumes of DNA and Lipofectamine 2000 were combined (DNA: Lipid=1:1.2 ratio) and incubated at room temperature for 20 minutes.
The harvested Cos-1 cells are counted using a coulter counter and diluted further with 1% FCS/DMEM to 2.5×10^5 cells/ml. For each 96-well, 8.33 ml cells were required. […] 70 μl of media was aspirated from the assay plate using the Quadra before the plate was transferred onto the ECHO 550. […] Compound transfer to the assay plate on the ECHO 550 was at concentration ranges 1)10 μM, 2) 3 μM, 3) 1 μM, 4) 0.3 μM, 5) 0.1 μM, 6) […].
The plates were gently tapped to mix compound in with the cell media and left to incubate at 37° C. with 5% CO2 for 1 hour.
Media was removed from the wells using vacuum aspiration; cells were fixed by adding 50 μl of 100% methanol to each well and incubated at room temperature for 20 minutes.
The plates were read on an Arrayscan (Cellomics).

T2 sequence (P11362 22-822): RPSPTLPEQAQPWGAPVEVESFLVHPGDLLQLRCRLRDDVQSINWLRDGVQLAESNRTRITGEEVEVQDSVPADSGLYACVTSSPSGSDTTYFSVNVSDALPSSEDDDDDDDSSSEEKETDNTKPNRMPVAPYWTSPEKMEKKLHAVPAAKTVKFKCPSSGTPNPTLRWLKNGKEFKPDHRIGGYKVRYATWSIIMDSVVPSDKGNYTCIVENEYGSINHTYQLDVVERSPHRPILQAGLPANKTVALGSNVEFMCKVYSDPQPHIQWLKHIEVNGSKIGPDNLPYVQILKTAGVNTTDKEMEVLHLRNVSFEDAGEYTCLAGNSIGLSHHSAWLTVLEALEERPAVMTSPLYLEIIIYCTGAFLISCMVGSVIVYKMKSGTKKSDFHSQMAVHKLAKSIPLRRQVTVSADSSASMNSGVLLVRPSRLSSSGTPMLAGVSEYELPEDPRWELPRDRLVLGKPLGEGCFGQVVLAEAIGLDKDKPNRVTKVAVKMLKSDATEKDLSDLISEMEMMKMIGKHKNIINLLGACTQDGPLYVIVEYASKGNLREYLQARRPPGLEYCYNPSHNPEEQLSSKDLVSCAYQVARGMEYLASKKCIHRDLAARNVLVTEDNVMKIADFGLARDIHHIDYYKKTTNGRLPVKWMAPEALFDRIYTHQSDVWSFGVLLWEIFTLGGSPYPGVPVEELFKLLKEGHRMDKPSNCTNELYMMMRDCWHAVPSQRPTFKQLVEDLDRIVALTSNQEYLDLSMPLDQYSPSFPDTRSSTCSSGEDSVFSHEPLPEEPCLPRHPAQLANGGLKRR
Chain of FGFR1 kinase (P11362 22-822): as above

In the case of `COCCCc1cc(Nc2ccnc(NCc3cc(C4CCC4)no3)n2)n[nH]1` [Example 23, N-[(3-Cyclobutyl1,2-oxazol-5-yl)methyl]-N′-[5-(3-methoxypropyl)-1H-pyrazol-3-yl]pyrimidine-2,4-diamine], the IC50 in experiment [1] and in experiment [2] was less than 1 µM in each case.
As for `COc1ccc(CCc2cc(Nc3ccnc(NCc4cc(-c5ncccn5)no4)n3)n[nH]2)cc1` [Example 32, N′-[5-[2-(4-methoxyphenyl)ethyl]-2H-pyrazol-3-yl]-N-[(3-pyrimidin-2-yl-1,2-oxazol-5-yl)methyl]pyrimidine-2,4-diamine], the figures for the IC50 in experiment [3], in experiment [4] and in experiment [2] were 1 to 10 µM, less than 1 µM and less than 1 µM, respectively.
With `c1ccc(OCc2cc(Nc3ccnc(NCc4cc(C5CC5)no4)n3)[nH]n2)cc1` [Example 35, N-[(3-cyclopropyl1,2-oxazol-5-yl)methyl]-N′-[5-(phenoxymethyl)-2H-pyrazol-3-yl]pyrimidine-2,4-diamine], the IC50 is more than 10 µM in experiment [3], less than 1 µM in experiment [1] and less than 10 µM in experiment [2].
Regarding `NC(=O)c1cc(CNc2nccc(Nc3cc(COc4ccccc4)n[nH]3)n2)on1` [Example 36, 5-[[[4-[[5-(phenoxymethyl)-2H-pyrazol-3-yl]amino]pyrimidin-2-yl]amino]methyl]1,2-oxazole-3-carboxamide], the IC50 was more than 10 µM in experiment [3], less than 30 µM in experiment [4] and less than 10 µM in experiment [2].
On to `Cc1cc(CNc2nccc(Nc3cc(CCc4ccc(OCc5ccccc5)cc4)[nH]n3)n2)on1` [Example 37, N-[(3-methyl1,2-oxazol-5-yl)methyl]-N′-[5-[2-(4-phenylmethoxyphenyl)ethyl]-2H-pyrazol-3-yl]pyrimidine-2,4-diamine], for which the figures for the IC50 in experiment [3], in experiment [1] and in experiment [2] were 1 to 10 µM, less than 10 µM and less than 30 µM, respectively.
As to `NC(=O)c1cc(CNc2nccc(Nc3cc(CCc4ccccc4)n[nH]3)n2)on1` [Example 50, 5-[[[4-[(5-phenethyl-2H-pyrazol-3-yl)amino]pyrimidin-2-yl]amino]methyl]-1,2-oxazole-3-carboxamide], the IC50 in experiment [3] is more than 10 µM; in experiment [4] it was less than 10 µM; in experiment [2], less than 1 µM.
With `Cc1cc(CNc2nccc(Nc3cc(CCc4cccc(N5CCOCC5)c4)[nH]n3)n2)on1` [Example 55, N-[(3-methyl1,2-oxazol-5-yl)methyl]-N′-[5-[2-(3-morpholin-4-ylphenyl)ethyl]-1H-pyrazol-3-yl]pyrimidine-2,4-diamine], the results for the IC50 in experiment [3], in experiment [1] and in experiment [2] were more than 10 µM, less than 10 µM and less than 10 µM, respectively.
Turning to `CCc1cccc(COc2cc(Nc3ccnc(NCc4cc(C)no4)n3)n[nH]2)c1` [Example 74, N′-[5-[(3-ethylphenyl)methoxy]-2H-pyrazol-3-yl]-N-[(3-methyl1,2-oxazol-5-yl)methyl]pyrimidine-2,4-diamine], the values for the IC50 in experiment [3], in experiment [1] and in experiment [2] were more than 10 µM, less than 1 µM and less than 10 µM, respectively.
For `COCC(C)Oc1cc(Nc2ccnc(NCc3cc(C4CC4)no3)n2)n[nH]1` (stereo not shown) [Example 76, N-[(3-cyclopropyl-1,2-oxazol-5-yl)methyl]-N′-[5-(1-methoxypropan-2-yloxy)-1H-pyrazol-3-yl]pyrimidine-2,4-diamine], the IC50 in experiment [3] is more than 10 µM; in experiment [1] it was less than 1 µM.
`CCOC(=O)c1cc(CNc2nccc(Nc3cc(OC(C)C)n[nH]3)n2)on1` [Example 77, Ethyl 5-[[[4-[(5-propan-2-yloxy-2H-pyrazol-3-yl)amino]pyrimidin-2-yl]amino]methyl]1,2-oxazole-3-carboxylate] displayed an IC50 in experiment [1] of less than 1 µM.
In the case of `CC(C)Oc1cc(Nc2ccnc(NCc3cc(C(=O)N(C)C)no3)n2)[nH]n1` [Example 80, N,N-dimethyl-5-[[[4-[(5-propan-2-yloxy-2H-pyrazol-3-yl)amino]pyrimidin-2-yl]amino]methyl]1,2-oxazole-3-carboxamide], the values for the IC50 in experiment [1] and in experiment [2] were less than 10 µM and less than 1 µM, respectively.
For `CC(C)Oc1cc(Nc2ccnc(NCc3cc(-c4cncnc4)no3)n2)n[nH]1` [Example 81, N′-(5-propan-2-yloxy-2H-pyrazol-3-yl)-N-[(3-pyrimidin-5-yl1,2-oxazol-5-yl)methyl]pyrimidine-2,4-diamine], the IC50 in experiment [1] and in experiment [2] was less than 10 µM in each case.
Consider `CC(C)Oc1cc(Nc2ccnc(NCc3cc(C4CCOC4)no3)n2)[nH]n1` (stereo not shown) [Example 83, N-[[3-(oxolan-3-yl)1,2-oxazol-5-yl]methyl]-N′-(5-propan-2-yloxy-2H-pyrazol-3-yl)pyrimidine-2,4-diamine], for which the IC50 in experiment [1] is less than 10 µM; in experiment [2] it was less than 1 µM.
Taken in the same sequence, the figures for `CC(C)Oc1cc(Nc2ccnc(NCc3cc(C4CCOCC4)no3)n2)[nH]n1` [Example 85, N-[[3-(oxan-4-yl)1,2-oxazol-5-yl]methyl]-N′-(5-propan-2-yloxy-2H-pyrazol-3-yl)pyrimidine-2,4-diamine] were less than 10 µM and less than 10 µM.
The matching figures for `CCOc1cc(Nc2ccnc(NCc3cc(C)no3)n2)n[nH]1` [Example 86, N′-(5-ethoxy-1H-pyrazol-3-yl)-N-[(3-methyl1,2-oxazol-5-yl)methyl]pyrimidine-2,4-diamine]: less than 1 µM and less than 0.2 µM.
Consider `Cc1cc(CNc2nccc(Nc3cc(OCc4cccc(C(=O)O)c4)[nH]n3)n2)on1` [Example 98, 3-[[5-[[2-[(3-methyl1,2-oxazol-5-yl)methylamino]pyrimidin-4-yl]amino]-1H-pyrazol-3-yl]oxymethyl]benzoic acid], for which the IC50 in experiment [1] and in experiment [2] was less than 10 µM in each case.
Consider `Cc1cc(CNc2nccc(Nc3cc(OCCOc4ccccc4)[nH]n3)n2)on1` [Example 101, N-[(3-methyl1,2-oxazol-5-yl)methyl]-N′-[5-(2-phenoxyethoxy)-2H-pyrazol-3-yl]pyrimidine-2,4-diamine], for which the values for the IC50 in experiment [3], in experiment [4] and in experiment [2] were more than 10 µM, less than 1 µM and less than 1 µM, respectively.
With `NC(=O)c1cc(CNc2nccc(Nc3cc(CCc4ccco4)n[nH]3)n2)on1` [Example 112, 5-[[[4-[[5-[2-(2-furyl)ethyl]-2H-pyrazol-3-yl]amino]pyrimidin-2-yl]amino]methyl]1,2-oxazole-3-carboxamide], the IC50 was less than 10 µM in experiment [1] and less than 0.2 µM in experiment [2].
`CNC(=O)c1cccc(CCc2cc(Nc3ccnc(NCc4cc(C)no4)n3)n[nH]2)c1` [Example 141, N-methyl-3-[2-[5-[[2-[(3-methyl-1,2-oxazol-5-yl)methylamino]pyrimidin-4-yl]amino]-1H-pyrazol-3-yl]ethyl]benzamide]: the IC50 in experiment [4] was less than 1 µM; in experiment [2] it was less than 0.2 µM.
Regarding `CNC(=O)c1cc(C)cc(CCc2cc(Nc3ccnc(NCc4cc(C)no4)n3)n[nH]2)c1` [Example 142, N,3-dimethyl-5-[2-[5-[[2-[(3-methyl-1,2-oxazol-5-yl)methylamino]pyrimidin-4-yl]amino]-1H-pyrazol-3-yl]ethyl]benzamide], the IC50 in experiment [4] is less than 10 µM; in experiment [2], less than 30 µM.
Taken in the same sequence, the figures for `CNC(=O)c1cc(OC)cc(CCc2cc(Nc3ccnc(NCc4cc(C)no4)n3)n[nH]2)n1` [Example 143, 4-Methoxy-N-methyl-6-[2-[5-[[2-[(3-methyl-1,2-oxazol-5-yl)methylamino]pyrimidin-4-yl]amino]-1H-pyrazol-3-yl]ethyl]pyridine-2-carboxamide] were less than 30 µM and less than 10 µM.
